Experiments:
[1] = test system: HT-1197 (Bladder Carcinoma); test: combination Emax (second highest fraction inhibited in the dose matrix, 72 h); higher = more inhibition; extreme values may be limits of the assay
In short: (§1)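 Cell lines in DMEM/F12 or RPMI with 10% FBS were plated in 1536-well plates, held 24 hours at 37°C, 5% CO2, then given two-drug dose matrices for 72 hours (DMSO typically 0.2%). Viability was read by CellTiter-Glo 2.0 luminescence and scaled as inhibition from 0 (vehicle wells) to 1 (blank wells). Combination Emax is the second-highest inhibition in the matrix; Bliss excess is observed combination effect minus expected EA + EB − EA·EB, EA and EB being single-agent effects.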

[2] = test system: NCI-H2009 (Lung Adenocarcinoma); test: as above
In short: as §1

[3] = test system: NCI-H1048 (Small Cell Lung Carcinoma); test: as above
In short: as §1

[4] = test system: SW1463 (Colorectal Carcinoma); test: as above
In short: as §1

GCIY (Gastric Carcinoma) = test: as above
In short: as §1

[5] = test system: SCC90 (Head and Neck Carcinoma); test: as above
In short: as §1

[6] = test system: C2BBe1 (Colorectal Carcinoma); test: as above
In short: as §1

[7] = test system: TK (B-Cell Non-Hodgkin's Lymphoma); test: as above
In short: as §1

[8] = test system: RS4-11 (B-Lymphoblastic Leukemia); test: as above
In short: as §1

[9] = test system: ATN-1 (T-Lymphoblastic Leukemia); test: as above
In short: as §1

[10] = test system: L-363 (Plasma Cell Myeloma); test: as above
In short: as §1

[11] = test system: SBC-5 (Small Cell Lung Carcinoma); test: as above
In short: as §1

[12] = test system: HT-1197 (Bladder Carcinoma); test: Bliss excess, mean over the matrix (fraction); higher = more synergy
In short: as §1

[13] = test system: NCI-H1975 (Lung Adenocarcinoma); test: as above
In short: as §1

[14] = test system: RS4-11 (B-Lymphoblastic Leukemia); test: as above
In short: as §1

[15] = test system: JJN-3 (Plasma Cell Myeloma); test: as above
In short: as §1

[16] = test system: TOV-21G (Ovarian Carcinoma); test: as above
In short: as §1

[17] = test system: SUP-HD1 (Hodgkin's Lymphoma); test: as above
In short: as §1

[18] = test system: NCI-H1648 (Lung Adenocarcinoma); test: as above
In short: as §1

[19] = test system: MDA-MB-175-VII (Breast Carcinoma); test: as above
In short: as §1
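Wherever Bliss excess, mean over the matrix is given: after 72 h of two-drug dosing.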

Row | SMILES | combination Emax [1] | combination Emax [2] | combination Emax [3] | combination Emax [4] | combination Emax (GCIY (Gastric Carcinoma)) | combination Emax [5] | combination Emax [6] | combination Emax [7] | combination Emax [8] | combination Emax [9] | combination Emax [10] | combination Emax [11] | Bliss excess [12] | Bliss excess [13] | Bliss excess [14] | Bliss excess [15] | Bliss excess [16] | Bliss excess [17] | Bliss excess [18] | Bliss excess [19]
1 | CC(=O)c1c(C)c2cnc(Nc3ccc(N4CCNCC4)cn3)nc2n(C2CCCC2)c1=O [Palbociclib] + Cn1cnc2c(F)c(Nc3ccc(Br)cc3Cl)c(C(=O)NOCCO)cc21 [Selumetinib] (first compound max 10 µM, 7x7, partner max 10 µM) | 0.245 | 0.363 | 0.0486 | 0.646 | 0.416 | 0.726 | 0.379 | 0.196 | 0.488 | 0.48 | 0.301 | 0.251 | -0.0257 | -0.0041 | -0.0881 | -0.0244 | -0.0259 | -0.0414 | 0.0823 | -0.0013
2 | COc1cccc(OCCCN)c1-c1cc(Nc2cnc(C#N)cn2)n[nH]1 [Prexasertib] + C=CCn1c(=O)c2cnc(Nc3ccc(N4CCN(C)CC4)cc3)nc2n1-c1cccc(C(C)(C)O)n1 [AZD1775] (first compound max 1 µM, partner max 1 µM) | 0.646 | 0.849 | 0.955 | 0.795 | 0.911 | 0.94 | 0.613 | 0.882 | 1 | 1 | 1 | 0.94 | -0.0589 | 0.0404 | 0.0466 | 0.085 | -0.0089 | 0.0009 | 0.0286 | 0.106
3 | COc1cccc(OCCCN)c1-c1cc(Nc2cnc(C#N)cn2)n[nH]1 [Prexasertib] + CCc1c2c(nc3ccc(O)cc13)-c1cc3c(c(=O)n1C2)COC(=O)[C@]3(O)CC [SN-38] (first compound max 1 µM, 7x7, partner max 0.3 µM) | 0.543 | 0.886 | 1 | 0.741 | 0.929 | 0.952 | 0.708 | 1 | 1 | 0.999 | 1 | 0.997 | -0.0376 | 0.108 | 0.0066 | 0.0314 | -0.122 | -0.075 | 0.0114 | -0.0027
4 | COc1cccc(OCCCN)c1-c1cc(Nc2cnc(C#N)cn2)n[nH]1 [Prexasertib] + CN(C)CCCOc1ccc(-c2ccc3ncc4c(c3c2)n(C2CCOCC2)c(=O)n4C)cn1 [AZD0156] (first compound max 1 µM, 7x7, partner max 1 µM) | 0.571 | 0.462 | 0.685 | 0.716 | 0.853 | 0.737 | 0.582 | 0.918 | 1 | 1 | 0.992 | 0.886 | -0.0183 | 0.026 | -0.0548 | 0.0057 | 0.0588 | -0.0442 | -0.0136 | -0.0173
5 | COc1cccc(OCCCN)c1-c1cc(Nc2cnc(C#N)cn2)n[nH]1 [Prexasertib] + C[C@@H]1COCCN1C2=NC(=NC(=C2)C3(CC3)[S@](=N)(=O)C)C4=C5C=CNC5=NC=C4 [AZD6738] (first compound max 1 µM, 7x7, partner max 10 µM) | 0.603 | 0.522 | 0.694 | 0.704 | 0.911 | 0.679 | 0.556 | 0.901 | 1 | 1 | 1 | 0.938 | 0.0065 | 0.0029 | -0.0225 | -0.0519 | -0.0582 | -0.0809 | -0.0445 | -0.0016
6 | COc1cccc(OCCCN)c1-c1cc(Nc2cnc(C#N)cn2)n[nH]1 [Prexasertib] + Cc1cc2ncnn2cc1Nc1ncc2c(n1)n(C1CCOCC1)c(=O)n2C [AZD7648] (first compound max 1 µM, 7x7, partner max 10 µM) | 0.517 | 0.45 | 0.735 | 0.704 | 0.879 | 0.755 | 0.625 | 0.872 | 1 | 1 | 0.985 | 0.901 | -0.0206 | 0.041 | -0.0159 | -0.0097 | 0.0057 | -0.0443 | -0.0609 | -0.0328
7 | COc1cccc(OCCCN)c1-c1cc(Nc2cnc(C#N)cn2)n[nH]1 [Prexasertib] + O=C(c1cc(Cc2n[nH]c(=O)c3ccccc23)ccc1F)N1CCN(C(=O)C2CC2)CC1 [Olaparib] (first compound max 1 µM, 7x7, partner max 10 µM) | 0.478 | 0.574 | 0.894 | 0.601 | 0.837 | 0.679 | 0.414 | 0.891 | 1 | 1 | 1 | 0.914 | -0.044 | 0.0284 | -0.0025 | 0.0165 | -0.0111 | -0.091 | 0.0051 | -0.0407
